In a melting point compilation (Tetko et al.; mined from patent text by program, amines drawn as free bases though some values may be those of a salt) one finds melting point data, which are given here for 64 compounds.

In the case of `Cc1cccc2c1CCN=C2c1ccc(Cl)cc1`, the melting point is 66 to 67 °C.
In the case of `CC(=O)NC[C@H]1CN(c2ccc(C(=O)c3ccc4cnc(C)cn34)cc2)C(=O)O1` it was 248 to 250 °C.
The compound `O=C1Nc2ccc(C(F)(C(F)(F)F)C(F)(F)F)cc2CN1NCc1cccnc1` yielded a melting point of 159 to 161 °C.
Compound `CC(C)(C)OC(=O)NCC(Cl)c1ccccc1` (centres undefined) registered a melting point of 57 to 59 °C.
The value for `N#Cc1cc(=O)c2ccc(CBr)cc2o1` was 162 to 166 °C.
In the case of `COc1ccc(SCCCC(=O)O)cc1OC` it was 78 °C; in that of `COc1cccc(N(CC(=O)OC(C)(C)C)C(=O)CCl)c1`, 110 °C.
Consider `CCCC(=O)Nc1n[nH]c2cc(-c3ccc(C(C)(C)C)cc3)ccc12`, for which the melting point was determined as 246 °C.
In the case of `O=[N+]([O-])c1ccc(C=Cc2ccc(Cl)c(Cl)c2)cc1` it was 190 to 191 °C; in that of `O=C1Nc2ccc(C(F)(F)F)cc2C1(O)c1cc(Cl)ccc1O` (centres undefined), 156 to 158 °C.
Take `CNc1nc(-c2cccc(NC(=O)c3cccc(OC)c3)c2)c2cc(OC)c(OC)cc2n1`: the melting point was in the range of 193 to 195 °C.
`COc1ccc(CNc2nc(C)c(-c3ccncc3)s2)cc1OC` displayed a melting point of 134 to 135 °C.
Take `C=C(c1ccccc1)C(O)C(NC=O)C(=O)OC` (centres undefined): the melting point fell in the range of 173 to 174 °C.
In the case of `CN1CCC(=C2c3ccccc3CC(=O)c3ccccc32)CC1` it was 138 to 140 °C.
The value for `Cc1cc(C)c(S(=O)(=O)OCCC2CCN(S(=O)(=O)c3c(C)cc(C)cc3C)CC2)c(C)c1` was 93.5 to 94 °C; that for `Cc1c(C)c2c(c(C)c1NCc1ccccc1)C(=O)C(C)(C)O2` was 98 to 99 °C; that for `C[C@@H](C(O)=S)c1cc(C(C)(C)C)c(O)c(C(C)(C)C)c1` was 111 to 112 °C.
The value for `COc1ccnc(C(C)O)c1` (single isomer, unassigned; (+)) was 92 °C.
Turning to `COC(=N)c1cc(Oc2ccc(C(F)(F)F)cc2Cl)ccc1[N+](=O)[O-]`, the melting point worked out at 46 °C.
In the case of `COc1ccc(-n2ccc3ccccc32)cc1F` it was 65 to 67 °C; in that of `CC(C(=O)O)c1ccc2c(c1)C(=O)CC(C(C)C)O2` (centres undefined), 94 to 95 °C.
In the case of `COc1ccc(-n2ccnc2)cc1C(O)c1c(C)cc(C)cc1C` (centres undefined) it was 187 to 188 °C.
As to `CCCCN(CCCC)c1ccc2nc3c4ccccc4c(=Nc4ccncc4)cc-3oc2c1`, the melting point was 188 to 189 °C.
In the case of `O=C1NCCN1C1CCCc2ccccc21` (centres undefined) it was 134 to 140 °C.
In the case of `Nc1nc(N)c2ncn(C3OC(COCc4ccccc4)C(OCc4ccccc4)C3OCc3ccccc3)c2n1` (centres undefined) it was 158 to 159 °C; in that of `COC(=O)C1CCC(c2csc(NC(=N)N)n2)C1` (centres undefined), 124 to 126 °C; in that of `COC(=O)c1cccc2nc(SCCCCCCCCC(=O)Nc3c(SC)cc(C)nc3SC)oc12`, 126 to 128 °C.
In the case of `Cc1ncc(CN2CC=C(CCc3ccccc3)CC2)c(N)n1` it was 152 to 154 °C; in that of `CC(C)n1nc(-c2sc(C(=O)NCc3ccccn3)nc2-c2ccccc2F)ccc1=O`, 190 to 191 °C.
In the case of `O=C1N(Cc2cnccc2C(F)(F)F)c2ccccc2C12COc1cc3c(cc12)OCCO3` (centres undefined), the melting point was in the range of 131 to 132 °C.
Turning to `O=C(O)c1cc2ccc(C3OC(CO)C(O)C(O)C3O)cc2oc1=O` (centres undefined), the melting point was 250 to 255 °C.
The compound `CCCCCOc1ccc(Cn2c(C)nc(Cl)c2COC(=O)NS(=O)(=O)c2ccc(C)cc2)c(Cl)c1` displayed a melting point of 109 to 111 °C.
In the case of `COc1ccc2cc3ncc(C#N)c(Nc4ccc(Cl)cc4Cl)c3cc2c1` it was 215 to 217 °C; in that of `OCc1c(Cl)cc(Cl)cc1Br`, 111 to 112 °C; in that of `COC(C)=CC(=O)Nc1cccc(SC)c1`, 70 to 71 °C.
In the case of `COC(=O)Nc1ccc(Br)c(F)c1` it was 121 to 122 °C.
The value for `COC(=O)C1(O)Cc2cc(Cl)ccc2C1=O` (single isomer, unassigned; (+)) was 163 to 165 °C; that for `Cc1cccc(C(=O)Nc2c[nH]nc2C(=O)NCC(C)(C)CO)n1` was 217 to 218 °C.
`O=c1[nH]c2ccc(O)cc2[nH]1`: the melting point fell in the range of 186 to 187 °C.
As to `CCOC(=O)c1cc(N)nn1C`, the melting point lay within 57 to 58 °C.
For the compound `Oc1ccc2c(c1)CCCC(c1ccccc1)=C2c1ccc(OCCI)cc1`, the melting point was in the range of 229 to 231 °C.
In the case of `NC(=O)N1C(=O)C(=C(OC(=O)C=CC(=O)O)c2cccs2)c2cc(F)c(Cl)cc21` it was 229 to 232 °C; in that of `Clc1ncnc2c1ncn2CCCN1CCC(COc2ccccc2)CC1`, 95 to 96 °C.
In turn, `CCOc1nn(-c2ccc(C(F)(F)F)cn2)cc1CCCOc1cc(OC)ccc1CCC(=O)O` gave a melting point of 115 to 116 °C.
For `O=C(c1ccnc(F)c1)N1CCC[C@H](c2nc(-c3ccc(F)cc3)no2)C1`, the melting point fell in the range of 93 to 95 °C.
As for `COc1nc2cc(F)c(Cl)c(N)c2nc1OC`, the melting point lay in the range of 199 to 200 °C.
In the case of `O=S(=O)(c1ccccc1)n1cc(I)c2c(OC3CCCCC3)ccnc21` it was 112 to 114 °C.
`O=C(O)c1cn(C2COC2)c2cc(N3CCNCC3)c(F)c(O)c2c1=O`: the melting point was in the range of 266 to 273 °C.
Compound `O=C(Nc1ccccc1)c1cccs1` had a melting point of 139 to 149 °C.
`C(=Cc1ccc2cc(C=Cc3ccccc3)ccc2c1)c1ccccc1` displayed a melting point of 291 °C.
Turning to `CC(C)(C)OC(=O)NC1CCCCCC=CC2CC2(C(=O)NS(=O)(=O)C2CC2)NC(=O)C2CC(OC(=O)c3ccc4c(c3)OCO4)CN2C1=O` (centres undefined), the melting point fell in the range of 153 to 155 °C.
The value for `CC(C)=CCN1Cc2c(Br)ccc3[nH]c(=S)n(c23)C[C@@H]1C` was 161 °C; that for `COC(=O)c1ccc(C(=O)NNC(=O)C=Cc2ccccc2)cc1` was 207 °C; that for `Cc1ccc2c(c1)c1c(CC(=O)N(C)C)nn(-c3ccccc3)c(=O)c1n2C` was 209 to 210 °C.
In the case of `COC(=O)Cn1c(=O)sc2cc(Br)c(Cl)cc21` it was 209 to 210 °C; in that of `CS(=O)(=O)c1cnc(Cl)c(CCC(=O)c2ccc(Cl)c(Cl)c2)c1`, 128 to 130 °C; in that of `CCCc1c2oc(C#N)cc(=O)c2cc2c(=O)cc(C(=O)OCC)oc12`, 182 to 184 °C.
In the case of `O=C1Cc2cc(O)ccc2N1c1c(Cl)cccc1Cl` it was 204 to 205 °C.
On to `CN(c1ccccc1)c1nc(N(C)c2ccccc2)c2ccsc2n1`, for which the melting point fell in the range of 85 to 87 °C.
In the case of `CCCCCS(=O)(=O)NC(=O)/C=C/c1ccc(OCCC2(C)OCCO2)cc1Oc1ncc(C(F)(F)F)cc1Cl` it was 90 to 92 °C.
Turning to `CC1CCN(C2(c3ccc(C#CC(=O)Nc4ccc(-c5ccc(Cl)cc5)cc4)cc3)CC2)CC1`, the melting point lay in the range of 128 to 129 °C.
In the case of `COC(=O)CCc1ccc(N2CCN(c3ccc(CCN)cc3)C2=O)cc1` it was more than 200 °C; in that of `COc1ncccc1C(=O)NCCc1ccc(CC(=O)O)cc1`, 157 to 158 °C; in that of `COC[C@H]1CCCN1NC(=O)Nc1cccc2c1C(=O)c1c-2n[nH]c1-c1ccc(C(=O)N2CCN(C)CC2)s1`, 181 to 183 °C.
